Data from patent EP4417602A1, “SUBSTITUTED PYRAZOLE CARBOXAMIDES, SALTS THEREOF AND THEIR USE AS HERBICIDALLY ACTIVE SUBSTANCES” (Bayer AG, priority 2023, dated 2024).

Legend:
DIGSA [1] = assay: A. Herbicidal pre-emergence action on harmful plants (Tables A); assay type: in vivo, Digitaria sanguinalis
Method in brief: (§1)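 Greenhouse pre-emergence test: compound applied to the soil surface at 1280 g/ha or below, and herbicidal effect rated visually at ca. 3 weeks on a 0–100% scale against untreated plants.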

MATIN [2] = assay: as above; assay type: in vivo, Matricaria inodora; conditions: visual grading after ca. 3 weeks vs untreated controls, 100% = plants have died off, 0% = as control plants
Method in brief: as §1

MATIN [3] = assay: B. Herbicidal post-emergence action on harmful plants (Tables B); assay type: in vivo, Matricaria inodora
Method in brief: (§2)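 Activity was scored visually as % damage (100% = dead, 0% = like untreated) about 3 weeks after treatment. Plants at the one-leaf stage, 2-3 weeks old, were sprayed with WP/EC formulations plus 0.5% additive (600 L/ha water, up to 1280 g/ha). Plants were grown in sandy loam in a greenhouse.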

VERPE [4] = assay: A. Herbicidal pre-emergence action on harmful plants (Tables A); assay type: in vivo, Veronica persica; conditions: application rate 1280 g/ha; Table A11
Text: Seeds of mono- and dicotyledonous weed plants were sown in plastic pots (double sowings with one species of mono- and one species of dicotyledonous weed plants per pot), in sandy loam, and covered with soil. The compounds according to the invention, formulated in the form of wettable powders (WP) or as emulsifiable concentrates (EC), were applied to the surface of the covering soil as aqueous suspension or emulsion, with the addition of 0.5% of an additive, at an application rate of 6001 of water per hectare (converted). Following treatment, the pots were placed in a greenhouse and kept under optimum growth conditions for the test plants. The visual grading of the damage to the test plants was carried out after ca. 3 weeks in comparison to untreated controls (herbicidal effect in percent (%): 100% effect = plants have died off, 0% effect = as control plants). Tables A1 to A12, below, show the effects of selected compounds of the general formula (I) according to table 1 on various harmful plants and an application rate corresponding to 1280 g/ha or below obtained by the experimental procedure mentioned above. Table A1: pre-emergence activity at 1280g/ha against ABUTH in %

STEME [5] = assay: B. Herbicidal post-emergence action on harmful plants (Tables B); assay type: in vivo, Stellaria media; conditions: application rate 1280 g/ha; Table B6
Description: (§3) Seeds of mono- and dicotyledonous weed plants were placed in plastic pots in sandy loam soil (doubly sown with in each case one species of mono- or dicotyledonous weed plants per pot), covered with soil and cultivated in a greenhouse under controlled growth conditions. 2 to 3 weeks after sowing, the test plants were treated at the one-leaf stage. The compounds of the invention, formulated in the form of wettable powders (WP) or as emulsion concentrates (EC), were applied onto the green parts of the plants as aqueous suspension or emulsion with addition of 0.5% additive at a water application rate of 600 liters per hectare (converted). After the test plants had been kept in the greenhouse under optimum growth conditions for about 3 weeks, the activity of the preparations was rated visually in comparison to untreated controls. For example, 100% activity = the plants have died, 0% activity = like control plants. Tables B1 to B12, below, show the effects of selected compounds of the general formula (I) according to table 1 on various harmful plants and an application rate corresponding to 1280 g/ha or below obtained by the experimental procedure mentioned above. Table B1a: post-emergence activity at 1280g/ha against ABUTH in %

STEME [6] = assay: A. Herbicidal pre-emergence action on harmful plants (Tables A); assay type: in vivo, Stellaria media; conditions: visual grading after ca. 3 weeks vs untreated controls, 100% = plants have died off, 0% = as control plants
Method in brief: as §1

ECHCG [7] = assay: B. Herbicidal post-emergence action on harmful plants (Tables B); assay type: in vivo, Echinochloa crus-galli
Method in brief: as §2

ECHCG [8] = assay: A. Herbicidal pre-emergence action on harmful plants (Tables A); assay type: in vivo, Echinochloa crus-galli; conditions: visual grading after ca. 3 weeks vs untreated controls, 100% = plants have died off, 0% = as control plants
Method in brief: as §1

SETVI [9] = assay: as above; assay type: in vivo, Setaria viridis; conditions: visual grading after ca. 3 weeks vs untreated controls, 100% = plants have died off, 0% = as control plants
Method in brief: as §1

POAAN [10] = assay: B. Herbicidal post-emergence action on harmful plants (Tables B); assay type: in vivo, Poa annua
Method in brief: as §2

ALOMY = assay: A. Herbicidal pre-emergence action on harmful plants (Tables A); assay type: in vivo, Alopecurus myosuroides
Method in brief: as §1

POAAN [11] = assay: as above; assay type: in vivo, Poa annua
Method in brief: as §1

AMARE = assay: as above; assay type: in vivo, Amaranthus retroflexus
Method in brief: as §1

SETVI [12] = assay: B. Herbicidal post-emergence action on harmful plants (Tables B); assay type: in vivo, Setaria viridis; conditions: application rate 1280 g/ha; Table B5
Description: as §3

VERPE [13] = assay: as above; assay type: in vivo, Veronica persica
Method in brief: as §2

LOLRI = assay: A. Herbicidal pre-emergence action on harmful plants (Tables A); assay type: in vivo, Lolium rigidum; conditions: visual grading after ca. 3 weeks vs untreated controls, 100% = plants have died off, 0% = as control plants
Method in brief: as §1

ABUTH = assay: B. Herbicidal post-emergence action on harmful plants (Tables B); assay type: in vivo, Abutilon theophrasti
Description: as §3

DIGSA [14] = assay: as above; assay type: in vivo, Digitaria sanguinalis; conditions: application rate 1280 g/ha; Table B12a
Description: as §3

[15] = application rate 1280 g/ha, visual grading after ca. 3 weeks vs untreated controls, 100% = plants have died off, 0% = as control plants

With `COCc1nn(C)cc1C(=O)N1CCCC1Cc1c(F)cccc1F` (single isomer, unassigned) [Example I-082] the “pre-emergence activity against DIGSA” value (DIGSA [1]; application rate 80 g/ha, Table A12c) was 100%, the “pre-emergence activity against DIGSA” value (DIGSA [1]; application rate 320 g/ha, Table A12b) was 100% and the “pre-emergence activity against DIGSA” value (DIGSA [1]; application rate 1280 g/ha, Table A12a) was 100%. The “pre-emergence activity against MATIN” value (MATIN [2]; application rate 80 g/ha) was 90%, the “pre-emergence activity against MATIN” value (MATIN [2]; application rate 320 g/ha) was 90% and the “pre-emergence activity against MATIN” value (MATIN [2]; application rate 1280 g/ha) was 90%. For the same molecule, the “post-emergence activity against MATIN” value (MATIN [3]; application rate 320 g/ha, Table B4b) was 90%, the “post-emergence activity against MATIN” value (MATIN [3]; application rate 1280 g/ha, Table B4a) was 90% and the “pre-emergence activity against VERPE” value (VERPE [4]) was 90%. The “post-emergence activity against STEME” value (STEME [5]) was 90%, the “pre-emergence activity against STEME” value (STEME [6]; application rate 80 g/ha) was 90% and the “pre-emergence activity against STEME” value (STEME [6]; application rate 320 g/ha) was 90%. For the same molecule, the “pre-emergence activity against STEME” value (STEME [6]; application rate 1280 g/ha) was 90%, the “post-emergence activity against ECHCG” value (ECHCG [7]; application rate 320 g/ha, Table B2b) was 90% and the “post-emergence activity against ECHCG” value (ECHCG [7]; application rate 1280 g/ha, Table B2a) was 90%. The “pre-emergence activity against ECHCG” value (ECHCG [8]; application rate 80 g/ha) was 90%, the “pre-emergence activity against ECHCG” value (ECHCG [8]; application rate 320 g/ha) was 90% and the “pre-emergence activity against ECHCG” value (ECHCG [8]; application rate 1280 g/ha) was 100%. The “pre-emergence activity against SETVI” value (SETVI [9]; application rate 80 g/ha) was 90%, the “pre-emergence activity against SETVI” value (SETVI [9]; application rate 320 g/ha) was 100% and the “pre-emergence activity against SETVI” value (SETVI [9]; application rate 1280 g/ha) was 100%. The “post-emergence activity against POAAN” value (POAAN [10]; application rate 80 g/ha, Table B7c) was 90%, the “post-emergence activity against POAAN” value (POAAN [10]; application rate 320 g/ha, Table B7b) was 90% and the “post-emergence activity against POAAN” value (POAAN [10]; application rate 1280 g/ha, Table B7a) was 100%. For the same molecule, the “pre-emergence activity against ALOMY” value (ALOMY; application rate 320 g/ha, Table A9b) was 90%, the “pre-emergence activity against ALOMY” value (ALOMY; application rate 1280 g/ha, Table A9a) was 90% and the “pre-emergence activity against POAAN” value (POAAN [11]; application rate 80 g/ha, Table A7c) was 100%. The “pre-emergence activity against POAAN” value (POAAN [11]; application rate 320 g/ha, Table A7b) was 100%, the “pre-emergence activity against POAAN” value (POAAN [11]; [15]) was 100% and the “pre-emergence activity against AMARE” value (AMARE; application rate 320 g/ha, Table A8b) was 90%. For the same molecule, the “pre-emergence activity against AMARE” value (AMARE; [15]) was 90%, the “post-emergence activity against SETVI” value (SETVI [12]) was 90% and the “post-emergence activity against VERPE” value (VERPE [13]; application rate 320 g/ha, Table B11b) was 90%. The “post-emergence activity against VERPE” value (VERPE [13]; application rate 1280 g/ha, Table B11a) was 90%, the “pre-emergence activity against LOLRI” value (LOLRI; application rate 80 g/ha) was 90% and the “pre-emergence activity against LOLRI” value (LOLRI; application rate 320 g/ha) was 100%. For the same molecule, the “pre-emergence activity against LOLRI” value (LOLRI; application rate 1280 g/ha) was 100%, the “post-emergence activity against ABUTH” value (ABUTH; application rate 320 g/ha, treated at the one-leaf stage, rated visually after about 3 weeks vs untreated controls, 100% = the plants have died, 0% = like control plants) was 90% and the “post-emergence activity against ABUTH” value (ABUTH; application rate 1280 g/ha, Table B1a) was 90%. For the same molecule, the “post-emergence activity against DIGSA” value (DIGSA [14]) was 90%.
